Test results as given in patent US20210254056A1, “IDENTIFICATION AND TARGETED MODULATION OF GENE SIGNALING NETWORKS” (CAMP4 THERAPEUTICS CORPORATION, priority 2017, published 2021).

Test system: hepatocytes
Assay: RNA-seq of hepatocytes treated with Phase III failure compounds
Conditions: hepatocytes
Procedure: RNA-seq was performed to determine the effects of the compounds on hepatocytes.
Significance was determined by the criteria of FPKM≥0.5, a log 2(fold-change)≥1, and a […].

For CCC(CC)[C@H](NC(C)=O)[C@@H]1[C@H](O)[C@@H](C(=O)O)C[C@H]1NC(=N)N.O.O.O [peramivir (trihydrate), peramivir], the “RNA-seq results: MCCC1 expression” value (gene MCCC1) was −0.27, the “RNA-seq results: MCCC2 expression” value (gene MCCC2) was −0.31 and the “RNA-seq results: MCM6 expression” value (gene MCM6) was −0.34. The “RNA-seq results: MEN1 expression” value (gene MEN1) was 0.18, the “RNA-seq results: MET expression” value (gene MET) was −0.27 and the “RNA-seq results: MGAT2 expression” value (gene MGAT2) was −0.09. For the same compound, the “RNA-seq results: MKS1 expression” value (gene MKS1) was 0.23, the “RNA-seq results: MLH1 expression” value (gene MLH1) was −0.18 and the “RNA-seq results: MMAA expression” value (gene MMAA) was −0.25. For the same compound, the “RNA-seq results: MMAB expression” value (gene MMAB) was −0.09, the “RNA-seq results: MMADHC expression” value (gene MMADHC) was −0.38 and the “RNA-seq results: MOCS1 expression” value (gene MOCS1) was 0.03. The “RNA-seq results: MOGAT2 expression” value (gene MOGAT2) was 0.66, the “RNA-seq results: MOGS expression” value (gene MOGS) was 0.33 and the “RNA-seq results: MPZ expression” value (gene MPZ) was 0.37. For the same compound, the “RNA-seq results: MRPL3 expression” value (gene MRPL3) was −0.47, the “RNA-seq results: MTHFR expression” value (gene MTHFR) was 0.37 and the “RNA-seq results: MTM1 expression” value (gene MTM1) was −0.29. The “RNA-seq results: MTO1 expression” value (gene MTO1) was −0.13, the “RNA-seq results: MTR expression” value (gene MTR) was 0.10 and the “RNA-seq results: MTRR expression” value (gene MTRR) was −0.43. The “RNA-seq results: MTTP expression” value (gene MTTP) was −0.18, the “RNA-seq results: MVK expression” value (gene MVK) was 0.07 and the “RNA-seq results: MYH9 expression” value (gene MYH9) was 0.20. For the same compound, the “RNA-seq results: MYO5B expression” value (gene MYO5B) was −0.08, the “RNA-seq results: NAGS expression” value (gene NAGS) was 0.31 and the “RNA-seq results: NARS2 expression” value (gene NARS2) was −0.42. The “RNA-seq results: NAT2 expression” value (gene NAT2) was −0.40, the “RNA-seq results: NBAS expression” value (gene NBAS) was −0.22 and the “RNA-seq results: NCF2 expression” value (gene NCF2) was −0.20. The “RNA-seq results: NEK1 expression” value (gene NEK1) was −0.22, the “RNA-seq results: NEK8 expression” value (gene NEK8) was 0.47 and the “RNA-seq results: NEU1 expression” value (gene NEU1) was −0.25. The “RNA-seq results: NFKB2 expression” value (gene NFKB2) was 0.30, the “RNA-seq results: NFKBIA expression” value (gene NFKBIA) was −0.19 and the “RNA-seq results: NFU1 expression” value (gene NFU1) was −0.52. For the same compound, the “RNA-seq results: NGLY1 expression” value (gene NGLY1) was −0.40, the “RNA-seq results: NHP2 expression” value (gene NHP2) was 0.65 and the “RNA-seq results: NME1 expression” value (gene NME1) was 0.00. The “RNA-seq results: NOD2 expression” value (gene NOD2) was 0.30, the “RNA-seq results: NOP10 expression” value (gene NOP10) was 0.03 and the “RNA-seq results: NOTCH1 expression” value (gene NOTCH1) was 0.23. The “RNA-seq results: NOTCH2 expression” value (gene NOTCH2) was 0.01, the “RNA-seq results: NPC1 expression” value (gene NPC1) was −0.09 and the “RNA-seq results: NR1H4 expression” value (gene NR1H4) was 0.00. For the same compound, the “RNA-seq results: NUBPL expression” value (gene NUBPL) was −0.11, the “RNA-seq results: NUDT7 expression” value (gene NUDT7) was −0.70 and the “RNA-seq results: NUDT12 expression” value (gene NUDT12) was −0.32. The “RNA-seq results: OAT expression” value (gene OAT) was −0.40, the “RNA-seq results: OPA3 expression” value (gene OPA3) was 0.14 and the “RNA-seq results: OTC expression” value (gene OTC) was −0.33. For the same compound, the “RNA-seq results: PAF1 expression” value (gene PAF1) was −0.04, the “RNA-seq results: PAH expression” value (gene PAH) was −0.22 and the “RNA-seq results: PANK2 expression” value (gene PANK2) was −0.22. For the same compound, the “RNA-seq results: PAOX expression” value (gene PAOX) was −0.04, the “RNA-seq results: PC expression” value (gene PC) was 0.27 and the “RNA-seq results: PCCA expression” value (gene PCCA) was −0.23. The “RNA-seq results: PCK2 expression” value (gene PCK2) was 0.18, the “RNA-seq results: PCSK9 expression” value (gene PCSK9) was 0.46 and the “RNA-seq results: PCYT1A expression” value (gene PCYT1A) was −0.07. For the same compound, the “RNA-seq results: PDGFRA expression” value (gene PDGFRA) was −0.06, the “RNA-seq results: PDP1 expression” value (gene PDP1) was −0.30 and the “RNA-seq results: PEPD expression” value (gene PEPD) was 0.03. For the same compound, the “RNA-seq results: PEX11A expression” value (gene PEX11A) was −0.27, the “RNA-seq results: PEX12 expression” value (gene PEX12) was −0.20 and the “RNA-seq results: PEX14 expression” value (gene PEX14) was 0.19. The “RNA-seq results: PFKM expression” value (gene PFKM) was 0.45, the “RNA-seq results: PGM1 expression” value (gene PGM1) was −0.24 and the “RNA-seq results: PHGDH expression” value (gene PHGDH) was 0.38. For the same compound, the “RNA-seq results: PHKA1 expression” value (gene PHKA1) was −0.18, the “RNA-seq results: PHKA2 expression” value (gene PHKA2) was 0.11 and the “RNA-seq results: PHKB expression” value (gene PHKB) was −0.39. The “RNA-seq results: PHYH expression” value (gene PHYH) was −0.26, the “RNA-seq results: PIEZO1 expression” value (gene PIEZO1) was 0.30 and the “RNA-seq results: PIGA expression” value (gene PIGA) was −0.37. For the same compound, the “RNA-seq results: PIGM expression” value (gene PIGM) was −0.35, the “RNA-seq results: PKD1 expression” value (gene PKD1) was 0.61 and the “RNA-seq results: PKD2 expression” value (gene PKD2) was 0.28. The “RNA-seq results: PKHD1 expression” value (gene PKHD1) was 0.34, the “RNA-seq results: PKLR expression” value (gene PKLR) was 0.35 and the “RNA-seq results: PLA2G6 expression” value (gene PLA2G6) was 0.59. The “RNA-seq results: PLEKHM1 expression” value (gene PLEKHM1) was 0.10, the “RNA-seq results: PMVK expression” value (gene PMVK) was 0.39 and the “RNA-seq results: PNP” value (gene PNP) was −0.40. For the same compound, the “RNA-seq results: PNPLA2” value (gene PNPLA2) was 0.02, the “RNA-seq results, POLD1” value (gene POLD1) was 0.24 and the “RNA-seq results: POLD1” value (gene POLD1) was 0.30. For the same compound, the “RNA-seq results, POLG2” value (gene POLG2) was 0.19, the “RNA-seq results: POLG2” value (gene POLG2) was 0.22 and the “RNA-seq results, POLG” value (gene POLG) was 0.03. For the same compound, the “RNA-seq results: POLG” value (gene POLG) was 0.10, the “RNA-seq results, POR” value (gene POR) was 0.82 and the “RNA-seq results: POR” value (gene POR) was 0.16. For the same compound, the “RNA-seq results, PPAPDC2” value (gene PPAPDC2) was −0.01, the “RNA-seq results: PPAPDC2” value (gene PPAPDC2) was −0.14 and the “RNA-seq results, PPARA” value (gene PPARA) was 0.09. The “RNA-seq results: PPARA” value (gene PPARA) was −0.14, the “RNA-seq results, PPARG” value (gene PPARG) was 0.16 and the “RNA-seq results: PPARG” value (gene PPARG) was −0.47. The “RNA-seq results, PPM1K” value (gene PPM1K) was 0.13, the “RNA-seq results: PPM1K” value (gene PPM1K) was −0.24 and the “RNA-seq results, PRKCD” value (gene PRKCD) was 0.03. The “RNA-seq results: PRKCD” value (gene PRKCD) was 0.06, the “RNA-seq results, PRODH” value (gene PRODH) was 0.2 and the “RNA-seq results: PRODH” value (gene PRODH) was −0.14. For the same compound, the “RNA-seq results, PROS1” value (gene PROS1) was −0.19, the “RNA-seq results: PROS1” value (gene PROS1) was −0.20 and the “RNA-seq results, PROZ” value (gene PROZ) was 0.28. For the same compound, the “RNA-seq results: PROZ” value (gene PROZ) was 0.10, the “RNA-seq results, PSAT1” value (gene PSAT1) was 0.26 and the “RNA-seq results: PSAT1” value (gene PSAT1) was −0.18. The “RNA-seq results, PSMB8” value (gene PSMB8) was 0.02, the “RNA-seq results: PSMB8” value (gene PSMB8) was 0.08 and the “RNA-seq results, PSPH” value (gene PSPH) was 0.05. The “RNA-seq results: PSPH” value (gene PSPH) was −0.12, the “RNA-seq results, PTCH1” value (gene PTCH1) was 0.28 and the “RNA-seq results: PTCH1” value (gene PTCH1) was 0.20. The “RNA-seq results, PTRF” value (gene PTRF) was −0.15 and the “RNA-seq results: PTRF” value (gene PTRF) was 0.25.
